Some results are limits rather than exact numbers.

One experiment concerns the target human KHK-A (Homo sapiens (Human), UniProt P50053). In words: KHK Biochemical Assay (IC50), ADP-Glo, KHK-A. The note with it: average of at least two separate assays. The method in brief:
(§1)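 ADP-Glo luminescence measured ADP made over a 4 h room-temperature reaction of ATP plus fructose, started after 30 min compound–enzyme pre-incubation. Buffer: 50 mM Hepes pH 7.4, 140 mM KCl, 5 mM MgCl2, 0.01% Triton-X. Enzyme was His-tagged, BL21 (DE3)-expressed, Ni-NTA-purified; compounds in 1:3 DMSO dilution series.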
On the technique in general: ADP-Glo turns the ADP formed in a reaction into a luminescent signal.

The target of another experiment is human KHK-C (Homo sapiens (Human), UniProt P50053). Kind of experiment: KHK Biochemical Assay (IC50), ADP-Glo, KHK-C. As to conditions: average of at least two separate assays. A digest of the protocol:
as §1

Sequence of human KHK-C (P50053 whole entry): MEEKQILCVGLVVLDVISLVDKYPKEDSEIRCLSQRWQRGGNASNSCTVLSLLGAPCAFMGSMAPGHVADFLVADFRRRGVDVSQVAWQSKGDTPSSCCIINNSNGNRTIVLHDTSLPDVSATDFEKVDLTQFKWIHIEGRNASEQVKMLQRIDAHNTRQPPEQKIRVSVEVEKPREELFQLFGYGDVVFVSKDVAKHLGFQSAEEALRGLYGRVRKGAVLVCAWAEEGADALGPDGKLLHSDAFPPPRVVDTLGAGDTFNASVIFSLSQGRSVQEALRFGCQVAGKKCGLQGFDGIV
Sequence of human KHK-A (P50053 other isoform, or with tags, fused parts or gaps): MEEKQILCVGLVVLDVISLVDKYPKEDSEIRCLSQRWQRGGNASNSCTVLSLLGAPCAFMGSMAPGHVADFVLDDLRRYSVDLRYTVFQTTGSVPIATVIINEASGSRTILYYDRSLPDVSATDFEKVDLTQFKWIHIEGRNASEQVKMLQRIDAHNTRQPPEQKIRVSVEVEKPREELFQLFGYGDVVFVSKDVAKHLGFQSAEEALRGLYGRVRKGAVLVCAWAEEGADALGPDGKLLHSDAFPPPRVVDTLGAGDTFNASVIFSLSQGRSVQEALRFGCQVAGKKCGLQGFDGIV

The IC50 is the concentration that inhibits the measured activity by half. A higher IC50 goes with a need for much substance. As to `C[C@H]1CCN1c1nc2c(c(-c3ccc(C(N)=O)c(Cc4ccccc4)c3)n1)CCC2` [Example 841, (S)-2-benzyl-4-(2-(2-methylazetidin-1-yl)-6,7-dihydro-5H-cyclopenta[d]pyrimidin-4-yl)benzamide], the half-maximal inhibitory concentration (IC50) against human KHK-A (ADP-Glo) was 28.1 nM; against human KHK-C (ADP-Glo), 40.5 nM.
On to `C[C@H]1CCN1c1nc2c(c(-c3cc4c(s3)C(=O)NC(C)(C)N4)n1)CCC2` [Example 866, (S)-2,2-dimethyl-6-(2-(2-methylazetidin-1-yl)-6,7-dihydro-5H-cyclopenta[d]pyrimidin-4-yl)-2,3-dihydrothieno[3,2-d]pyrimidin-4(1H)-one], for which the results for the IC50 on human KHK-A (ADP-Glo) and against human KHK-C (ADP-Glo) were 18.9 nM and 27.7 nM, respectively.
In the same order, the values of `C[C@H]1CCN1c1nc2c(c(-c3ccc(C4CNC4)cc3)n1)CCC2` [Example 233, 4-[4-(azetidin-3-yl)phenyl]-2-[(2S)-2-methylazetidin-1-yl]-6,7-dihydro-5H-cyclopenta[d]pyrimidine] are 55.7 nM and 9.7 nM.
Consider `CC1OC[C@]2(COc3cc(-c4nc(N5C[C@@H](O)[C@@H]5C)nc5c4CCC5(F)F)ccc32)NC1=O` (single isomer, unassigned) [Example 560], for which the IC50 amounted to 75.2 nM on human KHK-A and 16.2 nM against human KHK-C.
As for `COc1ccc(-c2nc(N3CC[C@@H]3C)nc3c2CCC3)cc1S(=N)(=O)CCN(C)C(C)=O` (stereo partly drawn) [Example 881, N-(2-(2-methoxy-5-(2-((S)-2-methylazetidin-1-yl)-6,7-dihydro-5H-cyclopenta[d]pyrimidin-4-yl)phenylsulfonimidoyl)ethyl)-N-methylacetamide], the IC50 at human KHK-A (ADP-Glo) came to 46 nM; against human KHK-C (ADP-Glo), 70.5 nM.
Consider `C[C@H]1CCN1c1nc2c(c(-c3cccc(C(=O)N4CC[C@H]4C(=O)O)c3)n1)CCC2` [Example 77, (S)-1-(3-(2-((S)-2-methylazetidin-1-yl)-6,7-dihydro-5H-cyclopenta[d]pyrimidin-4-yl)benzoyl)azetidine-2-carboxylic acid], for which the concentration for half-maximal inhibition (IC50) against human KHK-A (ADP-Glo) was 285 nM; on human KHK-C (ADP-Glo), 315 nM.
In the same order, the values of “(S)-4-(2-(2-methylazetidin-1-yl)-6,7-dihydro-5H-cyclopenta[d]pyrimidin-4-yl)pyridine-2-sulfonamide [Example 224]” are 155 nM and 114 nM.
In the same order, the values of `Cc1cc(-c2nc(N3CC[C@@H]3C)nc3c2CCC3)ccc1C(=O)N(C)C` [Example 357, N,N,2-trimethyl-4-[2-[(2S)-2-methylazetidin-1-yl]-6,7-dihydro-5H-cyclopenta[d]pyrimidin-4-yl]benzamide] are 122 nM and 162 nM.
As for `Cc1nc2cc(-c3nc(N4CC[C@@H]4C)nc4c3CCC4)ccc2s1` [Example 110, (S)-2-methyl-5-(2-(2-methylazetidin-1-yl)-6,7-dihydro-5H-cyclopenta[d]pyrimidin-4-yl)benzo[d]thiazole], the IC50 at human KHK-A (ADP-Glo) is 322 nM; on human KHK-C (ADP-Glo), 136 nM.
As to `C[C@H]1CCN1c1nc2c(c(-c3ccc(-c4ccn[nH]4)cc3)n1)CCC2` [Example 103, (S)-4-(4-(1H-pyrazol-5-yl)phenyl)-2-(2-methylazetidin-1-yl)-6,7-dihydro-5H-cyclopenta[d]pyrimidine], the 50% inhibitory concentration (IC50) on human KHK-A (ADP-Glo) came to 707 nM; at human KHK-C (ADP-Glo) it was 1280 nM.
With `C[C@H]1CCN1c1nc(-c2ccccc2)c2c(n1)C1(CC2)CC1` [Example 338, 2-[(2S)-2-methylazetidin-1-yl]-4-phenyl-spiro[5,6-dihydrocyclopenta[d]pyrimidine-7,1′-cyclopropane]], the half-inhibitory concentration (IC50) on human KHK-A (ADP-Glo) and against human KHK-C (ADP-Glo) was greater than 50000 nM each time.
For the molecule `CCc1cc(-c2nc(N3CC[C@@H]3C)nc3c2CCC3)ccc1C1(N)COC1` [Example 864, (S)-3-(2-ethyl-4-(2-(2-methylazetidin-1-yl)-6,7-dihydro-5H-cyclopenta[d]pyrimidin-4-yl)phenyl)oxetan-3-amine], the values for the concentration for half-maximal inhibition (IC50) on human KHK-A (ADP-Glo) and against human KHK-C (ADP-Glo) were 10 nM and 6.3 nM, respectively.
The corresponding values for `C[C@H]1CCN1c1nc2c(c(-c3cc4c(N)n[nH]c4cn3)n1)CCC2` [Example 867, (S)-5-(2-(2-methylazetidin-1-yl)-6,7-dihydro-5H-cyclopenta[d]pyrimidin-4-yl)-1H-pyrazolo[3,4-c]pyridin-3-amine] are greater than 1000 nM and greater than 1000 nM.
As to `C[C@H]1CCN1c1nc2c(c(-c3cccc(C(=O)N4CC(C(=O)O)C4)c3)n1)CCC2` [Example 68, (S)-1-(3-(2-(2-methylazetidin-1-yl)-6,7-dihydro-5H-cyclopenta[d]pyrimidin-4-yl)benzoyl)azetidine-3-carboxylic acid], the IC50 against human KHK-A (ADP-Glo) was 94.3 nM; against human KHK-C (ADP-Glo) it was 45.1 nM.
Regarding `CNC(=O)c1ccc(-c2nc(N3CC[C@@H]3C)nc3c2CCC3)cn1` [Example 280, (S)—N-methyl-5-(2-(2-methylazetidin-1-yl)-6,7-dihydro-5H-cyclopenta[d]pyrimidin-4-yl)picolinamide], the IC50 against human KHK-A (ADP-Glo) came to 122 nM; against human KHK-C (ADP-Glo) it was 188 nM.
Regarding `C[C@H]1CCN1c1nc2c(c(-c3ccccc3)n1)CCOC2` [Example 10, (S)-2-(2-methylazetidin-1-yl)-4-phenyl-5,8-dihydro-6H-pyrano[3,4-d]pyrimidine], the half-maximal inhibitory concentration (IC50) is 1150 nM on human KHK-A (ADP-Glo) and 1140 nM on human KHK-C (ADP-Glo).
Take `C[C@H]1[C@H](O)CN1c1nc(-c2ccc3c(c2)CCC32COCC(=O)N2)c2c(n1)C(F)(F)CC2` (stereo partly drawn) [Example 548, 5-(7,7-difluoro-2-((2S,3R)-3-hydroxy-2-methylazetidin-1-yl)-6,7-dihydro-5H-cyclopenta[d]pyrimidin-4-yl)-2,3-dihydrospiro[indene-1,3′-morpholin]-5′-one]: the results for the IC50 on human KHK-A and at human KHK-C were 7.3 nM and 0.1 nM, respectively.
Take `Cc1cc(-c2nc(N3CC[C@@H]3C)nc3c2CCC3)cc2c1C(NS(C)(=O)=O)CC2` (stereo partly drawn) [Example 895, N-(7-methyl-5-(2-((S)-2-methylazetidin-1-yl)-6,7-dihydro-5H-cyclopenta[d]pyrimidin-4-yl)-2,3-dihydro-1H-inden-1-yl)methanesulfonamide]: the IC50 came to 175 nM at human KHK-A (ADP-Glo) and 38.1 nM against human KHK-C (ADP-Glo).
Take `NC1(c2ccc(-c3nc(N4CCC5CC54)nc4c3CCC4(F)F)cc2)COC1` (stereo not shown) [Example 571, 3-(4-(2-(2-azabicyclo[3.1.0]hexan-2-yl)-7,7-difluoro-6,7-dihydro-5H-cyclopenta[d]pyrimidin-4-yl)phenyl)oxetan-3-amine]: the IC50 was 43.5 nM at human KHK-A and 49.7 nM against human KHK-C.
As to `C[C@H]1CCN1c1nc2c(c(-c3cccc(C(=O)N[C@H]4CC[C@H]4O)c3)n1)CCC2` (racemic) [Example 60, N-((18*,2R*)-2-hydroxycyclobutyl)-3-(2-((8)-2-methylazetidin-1-yl)-6,7-dihydro-5H-cyclopenta[d]pyrimidin-4-yl)benzamide], the IC50 was found to be 61.6 nM against human KHK-A (ADP-Glo) and 119 nM on human KHK-C (ADP-Glo).
In the same order, the values of `CC1=C(c2nc3c(c(-c4ccc(C(N)=O)cc4)n2)CCC3)CCC1=O` [Example 117, 4-(2-(2-methyl-3-oxocyclopent-1-en-1-yl)-6,7-dihydro-5H-cyclopenta[d]pyrimidin-4-yl)benzamide] are 4780 nM and 3780 nM.
Consider `C[C@H]1CCN1c1nc2c(c(-c3ccc(-c4ccccc4)nc3)n1)CCC2` [Example 55, (S)-2-(2-methylazetidin-1-yl)-4-(6-phenylpyridin-3-yl)-6,7-dihydro-5H-cyclopenta[d]pyrimidine], for which the IC50 is 1080 nM at human KHK-A (ADP-Glo) and 801 nM against human KHK-C (ADP-Glo).
For `C[C@H]1CCN1c1nc2c(c(-c3cccc(O)c3)n1)CCC2` [Example 261, 3-[2-[(2S)-2-methylazetidin-1-yl]-6,7-dihydro-5H-cyclopenta[d]pyrimidin-4-yl]phenol], the IC50 on human KHK-A (ADP-Glo) was 133 nM; on human KHK-C (ADP-Glo), 153 nM.
The corresponding values for `C[C@H]1CCN1c1nc2c(c(-c3cccc(C(=O)NC4(C(=O)O)CC4)c3)n1)CCC2` [Example 67, (S)-1-(3-(2-(2-methylazetidin-1-yl)-6,7-dihydro-5H-cyclopenta[d]pyrimidin-4-yl)benzamido)cyclopropane-1-carboxylic acid] are 128 nM and 140 nM.
Regarding `COC(=O)CCc1ccccc1-c1nc(N2CC[C@@H]2C)nc2c1CCC2` [Example 2, methyl (S)-3-(2-(2-(2-methylazetidin-1-yl)-6,7-dihydro-5H-cyclopenta[d]pyrimidin-4-yl)phenyl)propanoate], the values for the 50% inhibitory concentration (IC50) on human KHK-A (ADP-Glo) and against human KHK-C (ADP-Glo) were 31000 nM and 30800 nM, respectively.
Consider `C[C@H]1CCN1c1nc(-c2cccc(S(N)(=O)=O)c2)c2c(cnn2C)n1` [Example 37, (S)-3-(1-methyl-5-(2-methylazetidin-1-yl)-1H-pyrazolo[4,3-d]pyrimidin-7-yl)benzenesulfonamide], for which the IC50 came to 224 nM on human KHK-A (ADP-Glo) and 213 nM at human KHK-C (ADP-Glo).
With `C[C@H]1CCN1c1nc2c(c(-c3cccc(N)c3)n1)CCC2` [Example 71, (S)-3-(2-(2-methylazetidin-1-yl)-6,7-dihydro-5H-cyclopenta[d]pyrimidin-4-yl)aniline], the half-inhibitory concentration (IC50) against human KHK-A (ADP-Glo) came to 107 nM; against human KHK-C (ADP-Glo) it was 104 nM.
Consider `CS(=O)(=O)N[C@H]1COc2cc(-c3nc(N4CC[C@@H]4C(F)(F)F)nc4c3CCC4(F)F)ccc21` [Example 577, N—((R)-6-(7,7-difluoro-2-((R)-2-(trifluoromethyl)azetidin-1-yl)-6,7-dihydro-5H-cyclopenta[d]pyrimidin-4-yl)-2,3-dihydrobenzofuran-3-yl)methanesulfonamide], for which the IC50 against human KHK-A was determined as 2.1 nM; against human KHK-C, 0.6 nM.
Take `C[C@H]1CCN1c1nc2c(c(-c3ccc4c(c3)CCN(C)C4=O)n1)CCC2` [Example 222, (S)-2-methyl-6-(2-(2-methylazetidin-1-yl)-6,7-dihydro-5H-cyclopenta[d]pyrimidin-4-yl)-3,4-dihydroisoquinolin-1(2H)-one]: the figures for the IC50 against human KHK-A (ADP-Glo) and against human KHK-C (ADP-Glo) were 75.1 nM and 79.2 nM, respectively.

For the origin of these results see patent US12410160B2 (Gilead Sciences, Inc., priority 2021, dated 2025).
